Measurements taken from paper PMC8379256, “A xanthene derivative, DS20060511, attenuates glucose intolerance by inducing skeletal muscle-specific GLUT4 translocation in mice” (Communications Biology, 2021).
Values joined by “and” are separate entries in the source; they are usually repeats but may differ in a detail not shown here. Equal entries are not always repeated.

Legend:
GLUT4 = GLUT4 protein in plasma membrane fraction of triceps surae muscle (immunoblot); format: in vivo, mouse; conditions: DS20060511 10 mg kg−1 or insulin 5 U kg−1 via inferior vena cava, 10 min; Fig. 2e
Procedure: The plasma membrane fraction of each skeletal muscle specimen was prepared as described previously[48],[49]. Briefly, the triceps surae muscle was homogenized in Buffer A (20 mM HEPES, 1 mM EDTA, 1 mM PMSF, and protease inhibitor) containing 250 mM sucrose on ice. The muscle homogenate was centrifuged at 2000 × g for 10 min at 4 °C to remove any unhomogenized muscle fibers. The supernatant was then centrifuged at 19,000 × g for 20 min at 4 °C. The pellet was resuspended in 3 mL Buffer A, layered on a 6 mL sucrose cushion (38% sucrose in Buffer A) and centrifuged at 100,000 × g for 60 min at 4 °C. The membrane fraction recovered on top of the sucrose cushion was resuspended in Buffer A and centrifuged at 40,000 × g for 20 min at 4 °C. The pellet was designated as the plasma membrane fraction and subjected to immunoblotting.
Phosphorylated or total protein of IRβ and IRS1 was resolved on 7% SDS-PAGE and analyzed using specific antibodies against IRβ, IRS1, and phosphotyrosine. […] Bound antibodies were detected with HRP-conjugated secondary antibodies using ECL detection reagents (GE Healthcare, Chicago, IL).

[1] = test system: mouse liver microsomal fraction; test: Metabolic stability in mouse liver microsomes; format: in vitro ADME; conditions: after 1 h incubation, 1 μM
Procedure: C57BL/6 mice that had been denied access to food overnight received the indicated oral dose of DS20060511, and blood samples were collected from the tail vein at the indicated timepoints. Plasma samples for quantitation of DS20060511 were prepared by centrifugation. Another group of mice received oral administration DS20060511 (30 mg kg^−1) and euthanized 75 min later. The soleus and gastrocnemius muscles, heart, and inguinal WAT were removed and homogenized in water (5 vol.) for quantitation of the drug concentrations. Plasma samples and tissue homogenates were analyzed by LC-MS/MS (Nexera MP System, SHIMADZU, Kyoto, Japan; API4000 System, SCIEX, Framingham, MA). The tissue concentrations of the compound were calculated by assuming the volume of 1 g of tissue is 1 mL. Evaluation of the metabolic stability of the compound to mouse and human cytochrome P450 (CYP) was conducted as follows. […] The results were expressed as the amount of compound remaining (expressed as a percentage), based on the ratio of the relative area to that in the control (without reaction).

[2] = test system: wild-type and GLUT4KO mice; test: Oral GTT in wild-type and GLUT4 knockout mice; format: in vivo, mouse; conditions: for Blood glucose / Plasma insulin: glucose tolerance test, DS20060511 30 mg/kg, individual animals, 30 mg/kg; for blood glucose and plasma insulin levels during oral GTT (in words): 30 mg kg−1 po
Procedure: Fig. 3 The glucose-lowering effect of DS20060511 is totally dependent on GLUT4. a Blood glucose and plasma insulin levels during oral GTT in wild-type (WT, n = 5) and GLUT4 knockout (KO, n = 6) mice. Mice received oral administration of vehicle or DS20060511 (30 mg kg^−1), 15 min prior to the glucose administration (1.5 g kg^−1). Values shown are means ± SEM. *P < 0.05, **P < 0.01 vs. vehicle by the t-test. b DS20060511-stimulated [^3H]-2-DG uptake in the isolated soleus and EDL muscles excised from WT (n = 6) and KO (n = 6) mice. Values shown are means ± SEM. **P < 0.01 vs. vehicle by the t-test.
C57BL/6 and db/db mice were purchased from CLEA Japan, Tokyo, Japan. GLUT4- knockout mice were generated at RIKEN BioResource Center, Tsukuba, Japan, according to a previously described method. eNOS-knockout mice were kindly provided by Dr. Masato Tsutsui[41],[42]. The mice were group-housed under controlled illumination (12:12 h light-dark cycle) and temperature (23 ± 2 °C) conditions and given free access to normal chow and water, unless otherwise specified. The HFD-fed obese mice were prepared by feeding C57BL/6 mice a HFD for at least 8 weeks from 6 weeks of age. […] Male mice were used for all the experiments in this study. The animal care and experimental procedures used in the study were approved by The University of Tokyo Animal Care Committee (Approval number: 27-3), and the study was carried out in accordance with the Animal Experimentation Guidelines of Daiichi Sankyo Co., Ltd (Approved number: 20000411).
Mice that had been denied access to food overnight received the indicated oral dose of DS20060511 or vehicle 15 min prior to the glucose load (1.5 g kg^−1, except for eNOS-knockout mice, which received 3.0 g kg^−1). Then, after the oral glucose load, the blood glucose levels were measured using Glutest Every in samples obtained from the tail vein at the indicated timepoints. Plasma insulin concentrations were also measured with an ELISA kit (Morinaga Institute of Biological Science, Yokohama, Japan) in blood samples collected from the tail vein at the indicated timepoints.

## COc1ccc2c(C)c(C(=O)O)ccc2c1C1C2=C(CC(C)(C)CC2=O)OC2=C1C(=O)CC(C)(C)C2 [DS20060511]
GLUT4
  GLUT4 protein expression levels in the plasma membrane fraction of skeletal muscles: increased GLUT4 protein expression levels in the plasma membrane fraction
[1]
  compound remaining: 89%
[2]; GLUT4KO mice, 0 min
  Blood glucose: 151 mg/dL and 106 mg/dL and 203 mg/dL and 105 mg/dL and 130 mg/dL
  Plasma insulin: 0.11 ng/mL and 0.07 ng/mL and 0.16 ng/mL and 0.12 ng/mL and 0.18 ng/mL
[2]; GLUT4KO mice, 15 min
  Blood glucose: 361 mg/dL and 352 mg/dL and 278 mg/dL and 400 mg/dL and 444 mg/dL
  Plasma insulin: 0.43 ng/mL and 0.42 ng/mL and 0.55 ng/mL and 0.33 ng/mL and 0.70 ng/mL and 0.59 ng/mL
[2]; GLUT4KO mice, 30 min
  Blood glucose: 422 mg/dL and 387 mg/dL and 377 mg/dL and 384 mg/dL and 492 mg/dL and 513 mg/dL
  Plasma insulin: 0.34 ng/mL and 0.39 ng/mL and 0.25 ng/mL and 0.30 ng/mL and 0.28 ng/mL
[2]; GLUT4KO mice, 60 min
  Blood glucose: 272 mg/dL and 266 mg/dL and 232 mg/dL and 390 mg/dL and 329 mg/dL and 389 mg/dL
[2]; GLUT4KO mice, 90 min
  Blood glucose: 175 mg/dL and 168 mg/dL and 194 mg/dL and 265 mg/dL and 245 mg/dL and 275 mg/dL
[2]; GLUT4KO mice, 120 min
  Blood glucose: 115 mg/dL and 112 mg/dL and 165 mg/dL and 193 mg/dL and 153 mg/dL and 190 mg/dL
[2]; GLUT4KO mice, -15 min
  Blood glucose: 93 mg/dL and 75 mg/dL and 110 mg/dL and 49 mg/dL and 95 mg/dL and 89 mg/dL
  Plasma insulin: 0.06 ng/mL and 0.10 ng/mL and 0.11 ng/mL and 0.18 ng/mL and 0.13 ng/mL and 0.14 ng/mL
[2]; GLUT4KO mice
  blood glucose and plasma insulin levels during oral GTT (in words): completely abolished
[2]; Wildtype mice, 0 min
  Blood glucose: 69 mg/dL and 44 mg/dL and 58 mg/dL and 62 mg/dL and 46 mg/dL
  Plasma insulin: 0.10 ng/mL and 0.02 ng/mL and 0.13 ng/mL and 0.14 ng/mL
[2]; Wildtype mice, 15 min
  Blood glucose: 133 mg/dL and 103 mg/dL and 142 mg/dL and 181 mg/dL and 104 mg/dL
  Plasma insulin: 0.16 ng/mL and 0.14 ng/mL and 0.17 ng/mL and 0.18 ng/mL and 0.11 ng/mL
[2]; Wildtype mice, 30 min
  Blood glucose: 124 mg/dL and 111 mg/dL and 100 mg/dL and 107 mg/dL
  Plasma insulin: 0.26 ng/mL and 0.10 ng/mL and 0.15 ng/mL
[2]; Wildtype mice, 60 min
  Blood glucose: 92 mg/dL and 64 mg/dL and 99 mg/dL and 91 mg/dL and 76 mg/dL
[2]; Wildtype mice, 90 min
  Blood glucose: 71 mg/dL and 61 mg/dL and 87 mg/dL and 88 mg/dL and 68 mg/dL
[2]; Wildtype mice, 120 min
  Blood glucose: 74 mg/dL and 72 mg/dL and 70 mg/dL and 78 mg/dL and 82 mg/dL
[2]; Wildtype mice, -15 min
  Blood glucose: 66 mg/dL and 39 mg/dL and 48 mg/dL and 81 mg/dL and 64 mg/dL
  Plasma insulin: 0.14 ng/mL and 0.18 ng/mL and 0.11 ng/mL
[2]; wild-type (WT) mice
  blood glucose and plasma insulin levels during oral GTT (in words): significant decrease of the blood glucose and plasma insulin levels
